Measured values from US7417045B2, “Heterocyclic substituted pyridine or phenyl compounds with CXCR3 antagonist activity” (Schering Corporation, priority 2005, dated 2008).

The compounds below were run against T1, human CXCR3 (N-delta 4) (Homo sapiens, UniProt P49682) (assay: Human CXCR3 (N-delta 4) Scintillation Proximity Assay (SPA), [125I] IP-10 binding). Settings: IC50 rating; [125I] IP-10 displacement, Ba/F3-hCXCR3 (N-delta 4) membranes.
T1 construct: CD8 leader (N); Flag tag; expressed in transfected cells; membranes
T1 sequence (P49682 5-368 limits assumed): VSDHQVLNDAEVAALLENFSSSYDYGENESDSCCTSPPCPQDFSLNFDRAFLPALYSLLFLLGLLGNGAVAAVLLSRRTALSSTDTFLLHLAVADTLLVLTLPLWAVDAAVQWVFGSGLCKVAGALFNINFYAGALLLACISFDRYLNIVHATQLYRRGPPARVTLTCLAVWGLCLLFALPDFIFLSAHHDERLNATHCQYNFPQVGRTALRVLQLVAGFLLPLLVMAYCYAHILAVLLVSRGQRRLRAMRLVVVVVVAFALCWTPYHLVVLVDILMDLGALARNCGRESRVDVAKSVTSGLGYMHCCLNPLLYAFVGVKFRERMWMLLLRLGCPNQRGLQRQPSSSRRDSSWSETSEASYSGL
From the text: The inventive compounds can readily be evaluated to determine activity at The CXCR3 receptors by known methods, such as, for example, Development of Human CXCR3 (N-delta 4) Binding Assay.
Cloning and Expression of Human CXCR3 (N-Delta 4):
The DNA encoding human CXCR3 was cloned by PCR using human genomic DNA (Promega, Madison, Wis.) as a template. The PCR primers were designed based on the published sequence of human orphan receptor GPR9 (1) with incorporated restriction sites, a Kozak consensus sequence, CD8 leader and Flag tag. The PCR product was subcloned into the mammalian expression vector pME18Sneo, a derivative of the SR-alpha expression vector (designated as pME18Sneo-hCXCR3 (N-delta 4).
IL-3-dependent mouse pro-B cells Ba/F3 were transfected by electroporation in 0.4 ml Dulbecco's PBS containing 4×10^6 cells with 20 μg of pME18Sneo-hCXCR3 (N-delta 4) plasmid DNA. Cells were pulsed at 400 Volts, 100 OHMs, 960 μFd. The transfected cells were under selection with 1 mg/ml G418 (Life Technologies, Gaithersburg, Md.). G418-resistant Ba/F3 clones were screened for CXCR3 expression by specific binding of [^125I] IP-10 (NEN Life Science Products, Boston, Mass.).
Preparation of Ba/F3-hCXCR3 (N-Delta 4) Membranes
Ba/F3 cells expressing human CXCR3 (N-delta 4) were pelleted and resuspended in the lysis buffer containing 10 mM HEPES, pH 7.5 and Complete® protease inhibitors (1 tablet per 100 ml) (Boehringer Mannheim, Indianapolis, Ind.) at a cell density of 20×10^6 cells per ml. After 5 minutes incubation on ice, cells were transferred to 4639 cell disruption bomb (Parr Instrument, Moline, Ill.) and applied with 1,500 psi of nitrogen for 30 minutes on ice. Large cellular debris was removed by centrifugation at 1,000× g. Cell membrane in the supernatant was sedimented at 100,000× g. The membrane was resuspended in the lysis buffer supplemented with 10% sucrose and stored at −80° C. Total protein concentration of the membrane was determined by BCA method from Pierce (Rockford, Ill.).
Human CXCR3 (N-Delta 4) Scintillation Proximity Assay (SPA)
For each assay point, 2 μg of membrane was preincubated for 1 hr with 300 μg wheat germ agglutinin (WGA) coated SPA beads (Amersham, Arlington Heights, Ill.) in the binding buffer (50 mM HEPES, 1 mM CaCl2, 5 mM MgCl2, 125 mM NaCl, 0.002% NaN3, 1.0% BSA) at room temperature. The beads were spun down, washed once, resuspended in the binding buffer and transferred to a 96-well Isoplate (Wallac, Gaithersburg, Md.). 25 pM of [^125I] IP-10 with tested compounds in a series of titration were added to start the reaction. After 3 hr reaction at room temperature, the amount of [^125I] IP-10 bound to the SPA beads was determined with a Wallac 1450 Microbeta counter.

Compound	IC50
CC[C@H]1CN(c2ncc(-c3ncc[nH]3)cc2Cl)CCN1C1CCN(C(C(=O)Nc2ccccn2)c2ccc(Cl)cc2)CC1 (stereo partly shown) [Compound 116]	25 to 100 nM
CC[C@H]1CN(c2ncc(-c3ncc[nH]3)cc2Cl)CCN1C1CCN([C@@H](C(=O)OC)c2ccc(Br)cc2)CC1 [Compound 40]	< 25 nM
CC[C@H]1CN(c2ncc(-c3ncc[nH]3)cc2Cl)CCN1C1CCN(C(=O)c2ccc(C(=O)OC)cc2)CC1 [Compound 71]	< 25 nM
CC[C@H]1CN(c2ncc(-c3ncc[nH]3)cc2Cl)CCN1C1CCN(C(=O)c2ccc(-c3cnco3)cc2)CC1 [Compound 117]	25 to 100 nM
CC[C@H]1CN(c2ncc(-c3nnc(N)o3)cc2C(F)(F)F)[C@H](C)CN1C1CCN(Cc2ccc(OC(F)(F)F)cc2)CC1 [Compound 175]	< 25 nM
CC[C@H]1CN(c2c(F)cc(-c3ncc[nH]3)cc2C(F)(F)F)CCN1C1CCN(Cc2ccc(Cl)cc2F)CC1 [Compound 59]	< 25 nM
CC[C@H]1CN(c2ncc(-c3nnc(COC(C)=O)o3)cc2Cl)CCN1C1CCN(Cc2ccc(Cl)cc2F)CC1 [Compound 84]	< 25 nM
CC[C@H]1CN(c2ncc(-c3ncc[nH]3)cc2Cl)CCN1C1(C)CCN(Cc2ccc(Cl)cc2C(=O)NC)CC1 [Compound 130]	25 to 100 nM
CC[C@H]1CN(c2ncc(-c3nnc(CO)o3)cc2Cl)CCN1C1CCN(C(C(=O)OC)c2ccc(Cl)cc2)CC1 (stereo partly shown) [Compound 124]	25 to 100 nM
CC[C@H]1CN(c2ncc(-c3ncc[nH]3)cc2Cl)CCN1C1CCN([C@@H](C(=O)NCC2CC2)c2ccc(Cl)cc2)CC1 [Compound 107]	25 to 100 nM
CC[C@H]1CN(c2ncc(-c3ncc[nH]3)cc2Cl)CCN1C1CCN(C(=O)c2ccc(Cl)cc2N)CC1 [Compound 32]	< 25 nM
CC[C@H]1CN(c2ncc(-c3ncc[nH]3)cc2Cl)CCN1C1CCN(C(=O)c2ccc(OC(F)(F)F)cc2)CC1 [Compound 126]	25 to 100 nM
CC[C@H]1CN(c2ncc(-c3nccn3C(=O)c3ccc(Cl)cc3)cc2Cl)CCN1C1CCN(C(=O)c2ccc(Cl)cc2)CC1 [Compound 55]	< 25 nM
CC[C@H]1CN(c2ncc(-c3ncc[nH]3)cc2Cl)CCN1C1CCN(C(C)c2ccc(N3CCOCC3)cc2)CC1 (stereo partly shown) [Compound 139]	> 100 nM
CC[C@H]1CN(c2ncc(-c3ncc[nH]3)cc2Cl)CCN1C1CCN([C@H](C(=O)OC)c2ccc(Cl)cc2)CC1 [Compound 133]	> 100 nM
CC[C@H]1CN(c2ncc(-c3ncc[nH]3)cc2Cl)CCN1C1CCN(C(=O)c2ccc(C#CC(C)(C)O)cc2)CC1 [Compound 113]	25 to 100 nM
CC[C@H]1CN(c2ncc(-c3ncc[nH]3)cc2Cl)CCN1C1CCN(C(=O)c2ccc(N3CCCC3=O)cc2)CC1 [Compound 173]	> 100 nM
CC[C@H]1CN(c2ncc(-c3ncc[nH]3)cc2Cl)CCN1C1CCN(C(=O)c2ccc(-n3cncn3)nc2)CC1 [Compound 112]	25 to 100 nM
CC[C@H]1CN(c2ncc(-c3nnc(C(C)(C)OC(C)=O)o3)cc2Cl)CCN1C1CCN(Cc2ccc(Cl)cc2F)CC1 [Compound 141]	> 100 nM
CC[C@H]1CN(c2ncc(-c3nc(C(O)C(F)(F)F)cn3C(O)C(F)(F)F)cc2Cl)CCN1C1CCN(C(=O)c2ccc(Cl)cc2)CC1 (stereo partly shown) [Compound 163]	> 100 nM
CC[C@H]1CN(c2ncc(-c3ncc[nH]3)cc2Cl)CCN1C1CCN(C(=O)c2ccc(-c3ccccc3)cc2)CC1 [Compound 132]	> 100 nM
CC[C@H]1CN(c2ncc(-c3ncc[nH]3)cc2Cl)CCN1C1CCN([C@@H](C(N)=O)c2ccc(Cl)cc2)CC1 [Compound 91]	< 25 nM
CC[C@H]1CN(c2ncc(-c3cnc(N)s3)cc2Cl)CCN1C1CCN(C(=O)c2ccc(Cl)cc2)CC1 [Compound 167]	> 100 nM
CC[C@H]1CN(c2ncc(-c3ncc[nH]3)cc2Cl)CCN1C1CCN(C(=O)c2ccc(-c3csnn3)cc2)CC1 [Compound 109]	25 to 100 nM
CC[C@H]1CN(c2ncc(-c3ncc[nH]3)cc2Cl)CCN1C1CCN(C(=O)c2ccc(Cl)cc2O)CC1 [Compound 78]	< 25 nM
CC[C@H]1CN(c2ncc(-c3ncc[nH]3)cc2Cl)CCN1C1CCN(C(=O)c2ccc(-n3cccc3)cc2)CC1 [Compound 67]	< 25 nM

Now from value to compound:

IC50	Compound
25 to 100 nM	CC[C@H]1CN(c2ncc(C3=NCCCN3)cc2Cl)CCN1C1CCN(C(=O)c2ccc(Cl)cc2)CC1 [Compound 118]
> 100 nM	CC[C@H]1CN(c2ncc(-c3ncc[nH]3)cc2Cl)CCN1C1CCN(Cc2ccc(C#CC(C)(C)NS(C)(=O)=O)cc2)CC1 [Compound 137]
< 25 nM	CC[C@H]1CN(c2ncc(C3=NCCN3)cc2Cl)CCN1C1CCN([C@H](CO)c2ccc(Cl)cc2)CC1 [Compound 64]
< 25 nM	CC[C@H]1CN(c2ncc(C3=NCCN3)cc2Cl)CCN1C1CCN(Cc2ccc(C#N)cc2)CC1 [Compound 29]
< 25 nM	CC[C@H]1CN(c2ncc(-c3ncc[nH]3)cc2Cl)CCN1C1CCN(C(=O)c2ccc(Br)cc2)CC1 [Compound 41]
< 25 nM	CC[C@H]1CN(c2ncc(-c3ncc[nH]3)cc2Cl)CCN1C1CCN(Cc2ccc(C#CC(C)(C)NC(=O)OC(C)(C)C)cc2)CC1 [Compound 101]
25 to 100 nM	CC[C@H]1CN(c2ncc(C3=NC(C)(C)CN3)cc2Cl)CCN1C1CCN(C(=O)c2ccc(Cl)cc2)CC1 [Compound 105]
< 25 nM	C[C@H]1CN(c2ncc(C3=NCCN3)cc2Cl)CCN1C1CCN(Cc2ccc(Cl)cc2)CC1 [Compound 65]
< 25 nM	CC[C@H]1CN(c2ncc(-c3ncc[nH]3)cc2Cl)CCN1C1CCN(Cc2ccc(OC(F)(F)F)cc2)CC1 [Compound 13]
> 100 nM	CC[C@H]1CN(c2ncc(-c3ncc[nH]3)cc2Cl)CCN1C1CCN(Cc2ccc(C(=O)O)cc2)CC1 [Compound 162]
< 25 nM	CC[C@H]1CN(c2ncc(-c3ncc[nH]3)cc2Cl)CCN1C1CCN(Cc2ccc(Cl)cc2C(N)=O)CC1 [Compound 9]
< 25 nM	CC[C@H]1CN(c2ncc(-c3ncc[nH]3)cc2Cl)CCN1C1CCN(C(C)c2ccc(Cl)cc2)CC1 (stereo partly shown) [Compound 8]
< 25 nM	CC[C@H]1CN(c2ncc(-c3ncc[nH]3)cc2Cl)CCN1C1CCN(Cc2ccc(C(=O)OC)cc2)CC1 [Compound 16]
> 100 nM	CC[C@H]1CN(c2ncc(-c3ncc[nH]3)cc2Cl)CCN1C1CCN(CC(=O)c2ccc(Cl)cc2)CC1 [Compound 164]
< 25 nM	CC[C@H]1CN(c2ncc(-c3ncc[nH]3)cc2Cl)CCN1C1CCN(Cc2ccc(Cl)cc2C#N)CC1 [Compound 33]
< 25 nM	CC[C@H]1CN(c2ncc(-c3ncc[nH]3)cc2Cl)CCN1C1CCN(Cc2ccc(C#CCOC)cc2)CC1 [Compound 14]
< 25 nM	CC[C@H]1CN(c2ncc(-c3nnc(C(C)(C)O)o3)cc2Cl)CCN1C1CCN(Cc2ccc(Cl)cc2F)CC1 [Compound 98]
< 25 nM	CC[C@H]1CN(c2ncc(C3=NCCN3)cc2Cl)CCN1C1CCN(C(=O)c2ccc(Br)cc2)CC1 [Compound 56]
< 25 nM	CC[C@H]1CN(c2ncc(-c3ncc[nH]3)cc2Cl)CCN1C1CCN(Cc2c(F)cc(F)cc2F)CC1 [Compound 49]
< 25 nM	CC[C@H]1CN(c2ncc(-c3nnco3)cc2Cl)CCN1C1CCN(Cc2ccc(Cl)cc2F)CC1 [Compound 27]
25 to 100 nM	CC[C@H]1CN(c2ncc(-c3ncc[nH]3)cc2Cl)CCN1C1CCN(CCCCc2ccc(Cl)cc2)CC1 [Compound 103]
< 25 nM	CC[C@H]1CN(c2ncc(-c3ncc[nH]3)cc2Cl)CCN1C1CCN(Cc2ccc(I)cc2)CC1 [Compound 3]
< 25 nM	CC[C@H]1CN(c2ncc(C3=NC(C)CN3)cc2Cl)CCN1C1CCN(C(=O)c2ccc(Cl)cc2N)CC1 (stereo partly shown) [Compound 45]
